Source: patent US20200291018A1, “TAM KINASE INHIBITORS” (SYROS PHARMACEUTICALS, INC., priority 2017, published 2020)
pIC50: −log10 of the molar value.

Tests used:
FLT3 = molecular target: T1, FLT3 (Homo sapiens, UniProt P36888); experiment: TR-FRET kinase activity assay, FLT3; format: biochemical; conditions: ATP at Km, 60 minutes
T1 sequence (P36888 27-993): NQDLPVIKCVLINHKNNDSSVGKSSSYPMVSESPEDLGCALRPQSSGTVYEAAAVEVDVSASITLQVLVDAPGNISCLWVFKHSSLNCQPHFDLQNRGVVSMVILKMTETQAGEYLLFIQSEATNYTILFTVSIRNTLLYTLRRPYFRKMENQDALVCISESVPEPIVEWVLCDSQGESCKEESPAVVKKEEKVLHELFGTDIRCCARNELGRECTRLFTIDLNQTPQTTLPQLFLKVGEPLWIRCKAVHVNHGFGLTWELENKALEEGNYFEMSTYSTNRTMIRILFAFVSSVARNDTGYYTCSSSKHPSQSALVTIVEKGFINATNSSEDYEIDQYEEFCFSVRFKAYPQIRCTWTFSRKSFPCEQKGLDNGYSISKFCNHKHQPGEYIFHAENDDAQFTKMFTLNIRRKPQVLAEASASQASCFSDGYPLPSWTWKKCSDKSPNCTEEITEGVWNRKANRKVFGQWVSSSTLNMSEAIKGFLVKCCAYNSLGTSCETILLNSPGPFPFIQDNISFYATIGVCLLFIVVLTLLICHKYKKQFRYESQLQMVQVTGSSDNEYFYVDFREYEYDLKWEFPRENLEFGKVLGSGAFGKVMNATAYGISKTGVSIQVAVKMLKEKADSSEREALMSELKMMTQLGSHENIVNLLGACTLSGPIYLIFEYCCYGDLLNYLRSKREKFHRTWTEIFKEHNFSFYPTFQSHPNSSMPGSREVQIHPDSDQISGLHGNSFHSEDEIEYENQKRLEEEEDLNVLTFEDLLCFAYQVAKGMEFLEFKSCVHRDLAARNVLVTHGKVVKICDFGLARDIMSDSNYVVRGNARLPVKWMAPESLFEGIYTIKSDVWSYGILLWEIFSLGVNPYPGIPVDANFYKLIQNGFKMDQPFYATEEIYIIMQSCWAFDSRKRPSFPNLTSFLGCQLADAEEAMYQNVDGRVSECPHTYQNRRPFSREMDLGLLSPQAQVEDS
In short: (§1)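 Each kinase phosphorylates a fluorescently labeled peptide on tyrosine in the presence of compound, with ATP at its Km, for 60 min at RT in HEPES pH 7.5 buffer with MgCl2, EGTA, Brij 35 and DTT. Product is detected by TR-FRET with a Europium-labeled phospho-specific antibody; IC50 values follow.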

MERTK = molecular target: T2, MERTK (Homo sapiens, UniProt Q12866); experiment: TR-FRET kinase activity assay, MERTK; format: biochemical; conditions: for pIC50: TR-FRET activity assay, ATP at Km, 60 minutes, read-out: Mer IC50; for Mer/Flt3 ratio (FLT3 IC50/Mer IC50): ratio calculated as FLT3 IC50/Mer IC50
T2 sequence (Q12866 21-999): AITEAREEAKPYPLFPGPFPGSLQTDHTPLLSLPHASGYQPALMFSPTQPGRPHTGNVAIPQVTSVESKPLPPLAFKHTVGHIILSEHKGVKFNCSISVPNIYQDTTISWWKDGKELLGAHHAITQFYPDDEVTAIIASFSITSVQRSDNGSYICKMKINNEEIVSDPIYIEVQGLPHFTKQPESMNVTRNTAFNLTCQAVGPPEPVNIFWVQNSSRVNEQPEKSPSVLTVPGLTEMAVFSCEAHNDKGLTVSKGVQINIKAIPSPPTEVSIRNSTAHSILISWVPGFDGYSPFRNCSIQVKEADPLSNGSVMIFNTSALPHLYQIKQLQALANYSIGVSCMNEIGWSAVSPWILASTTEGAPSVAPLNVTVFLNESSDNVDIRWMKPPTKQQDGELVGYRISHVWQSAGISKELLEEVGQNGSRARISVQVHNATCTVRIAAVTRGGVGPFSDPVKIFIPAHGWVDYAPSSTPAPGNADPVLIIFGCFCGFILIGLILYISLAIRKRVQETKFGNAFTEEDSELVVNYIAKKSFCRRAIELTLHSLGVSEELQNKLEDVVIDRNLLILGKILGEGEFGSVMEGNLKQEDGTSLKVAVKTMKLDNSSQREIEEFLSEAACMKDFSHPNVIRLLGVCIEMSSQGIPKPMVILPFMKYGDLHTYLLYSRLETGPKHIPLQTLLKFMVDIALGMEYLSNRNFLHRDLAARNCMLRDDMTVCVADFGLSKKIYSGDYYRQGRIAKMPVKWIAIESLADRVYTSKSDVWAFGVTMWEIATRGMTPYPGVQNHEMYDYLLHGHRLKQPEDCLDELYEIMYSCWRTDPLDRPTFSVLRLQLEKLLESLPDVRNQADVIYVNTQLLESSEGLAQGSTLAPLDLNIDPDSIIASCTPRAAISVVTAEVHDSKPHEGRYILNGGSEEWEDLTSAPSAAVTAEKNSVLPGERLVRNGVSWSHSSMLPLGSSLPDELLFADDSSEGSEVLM
In short: as §1

Row | Compound | pIC50 (FLT3) | pIC50 (MERTK) | Mer/Flt3 ratio (FLT3 IC50/Mer IC50) (MERTK)
1 | CCCC(C)Nc1ncc2c(O[C@H]3CC[C@@H](O)CC3)ncc([C@H]3CC[C@H](O)CC3)c2n1 (stereo partly drawn) [Compound 148] | 5.00 to 6.00 | ≥ 7.00 | +++ (a ratio of >100)
2 | CCCC(C)Nc1ncc2c(=O)n(C3CCN(CC(=O)N(C)C)CC3)cc([C@H]3CC[C@@H](O)CC3)c2n1 (stereo partly drawn) [Compound 149] | 5.00 to 6.00 | ≥ 7.00 | +++ (a ratio of >100)
3 | CCCC(C)Nc1ncc2c(=O)n(C3CCN(CCOC)CC3)cc([C@H]3CC[C@H](O)CC3)c2n1 (stereo partly drawn) [Compound 150] | 5.00 to 6.00 | ≥ 7.00 | +++ (a ratio of >100)
4 | CCCC(C)Nc1ncc2c(=O)n(C3CCN(CCC(=O)N(C)C)CC3)cc([C@H]3CC[C@H](O)CC3)c2n1 (stereo partly drawn) [Compound 151] | 5.00 to 6.00 | ≥ 7.00 | +++ (a ratio of >100)
5 | CCC[C@@H](C)Nc1ncc2c(=O)n(C3CCNCC3)cc([C@H]3CC[C@H](O)CC3)c2n1 [Compound 152] | 5.00 to 6.00 | ≥ 7.00 | +++ (a ratio of >100)
6 | CCCC(C)Nc1ncc2c(OC3CCC(F)(F)CC3)ncc([C@H]3CC[C@H](O)CC3)c2n1 (stereo partly drawn) [Compound 153] | 5.00 to 6.00 | ≥ 7.00 | +++ (a ratio of >100)
7 | CCCC(C)Nc1ncc2c(NC3CCN(C)CC3)ncc([C@H]3CC[C@H](O)CC3)c2n1 (stereo partly drawn) [Compound 154] | 6.00 to 7.00 | ≥ 7.00 | +++ (a ratio of >100)
8 | CCCC(C)Nc1ncc2c(N3CCC(NC)CC3)ncc([C@H]3CC[C@H](O)CC3)c2n1 (stereo partly drawn) [Compound 155] | 5.00 to 6.00 | ≥ 7.00 | +++ (a ratio of >100)
9 | CCCC(C)Nc1ncc2c(N3CC[C@@H](N(C)C)C3)ncc([C@H]3CC[C@H](O)CC3)c2n1 (stereo partly drawn) [Compound 156] | 5.00 to 6.00 | ≥ 7.00 | ++ (a ratio of between 10 and 100)
10 | CCCC(C)Nc1ncc2c(OC[C@H]3CC[C@@H](O)CC3)ncc([C@H]3CC[C@H](O)CC3)c2n1 (stereo partly drawn) [Compound 157] | 5.00 to 6.00 | ≥ 7.00 | ++ (a ratio of between 10 and 100)
11 | CCCC(C)Nc1ncc2c(NC3CCNCC3)ncc([C@H]3CC[C@H](O)CC3)c2n1 (stereo partly drawn) [Compound 158] | 6.00 to 7.00 | ≥ 7.00 | +++ (a ratio of >100)
12 | CCCC(C)Nc1ncc2c(N3CC[C@H](N(C)C)C3)ncc([C@H]3CC[C@H](O)CC3)c2n1 (stereo partly drawn) [Compound 159] | 5.00 to 6.00 | ≥ 7.00 | ++ (a ratio of between 10 and 100)
13 | CCCC(C)Nc1ncc2c(OC[C@H]3CC[C@H](O)CC3)ncc([C@H]3CC[C@H](O)CC3)c2n1 (stereo partly drawn) [Compound 160] | 5.00 to 6.00 | ≥ 7.00 | +++ (a ratio of >100)
14 | CCCC(C)Nc1ncc2c(OC3CC(C)(C)N(C)C(C)(C)C3)ncc([C@H]3CC[C@H](O)CC3)c2n1 (stereo partly drawn) [Compound 161] | 6.00 to 7.00 | ≥ 7.00 | +++ (a ratio of >100)
15 | CN1CCC(Nc2ncc3c(OC4CCNCC4)ncc([C@H]4CC[C@H](O)CC4)c3n2)C1=O (stereo partly drawn) [Compound 162] | 5.00 to 6.00 | 5.00 to 6.00 | + (a ratio of >2.0 and <10)
16 | Cc1nccn1CCNc1ncc2c(OC3CCNCC3)ncc([C@H]3CC[C@H](O)CC3)c2n1 [Compound 163] | 5.00 to 6.00 | 5.00 to 6.00 | + (a ratio of >2.0 and <10)
17 | O[C@H]1CC[C@H](c2cnc(OC3CCNCC3)c3cnc(NC4CCC(F)(F)CC4)nc32)CC1 [Compound 164] | 5.00 to 6.00 | ≥ 7.00 | ++ (a ratio of between 10 and 100)
18 | CCCC(C)Nc1ncc2c(NC3CCN(C(=O)C(F)(F)F)CC3)ncc([C@H]3CC[C@H](O)CC3)c2n1 (stereo partly drawn) [Compound 165] | 6.00 to 7.00 | ≥ 7.00 | +++ (a ratio of >100)

Results, then the compound that gave them:

Row | pIC50 (FLT3) | pIC50 (MERTK) | Mer/Flt3 ratio (FLT3 IC50/Mer IC50) (MERTK) | Compound
19 | 6.00 to 7.00 | ≥ 7.00 | +++ (a ratio of >100) | CCCC(C)Nc1ncc2c(OC3CCNCC3)ncc([C@H]3CC[C@H](O)CC3)c2n1 (stereo partly drawn) [Compound 166]
20 | ≥ 7.00 | ≥ 7.00 | ++ (a ratio of between 10 and 100) | CC1CC(Nc2ncc3c(OC4CCNCC4)ncc([C@H]4CC[C@H](O)CC4)c3n2)C1 (stereo partly drawn) [Compound 167]
21 | 6.00 to 7.00 | ≥ 7.00 | ++ (a ratio of between 10 and 100) | CC1CC(Nc2ncc3c(OC4CCNCC4)ncc([C@H]4CC[C@@H](O)CC4)c3n2)C1 (stereo partly drawn) [Compound 168]
22 | 5.00 to 6.00 | ≥ 7.00 | +++ (a ratio of >100) | CCCC(C)Nc1ncc2c(=O)n(CCN(C)C)cc([C@H]3CC[C@H](O)CC3)c2n1 (stereo partly drawn) [Compound 169]
23 | 5.00 to 6.00 | ≥ 7.00 | +++ (a ratio of >100) | CCCC(C)Nc1ncc2c(OC3CCN(CCC(=O)N(C)C)CC3)ncc([C@H]3CC[C@H](O)CC3)c2n1 (stereo partly drawn) [Compound 170]
24 | 6.00 to 7.00 | ≥ 7.00 | +++ (a ratio of >100) | CCC[C@H](C)Nc1ncc2c(OC3CCNCC3)ncc([C@H]3CC[C@H](O)CC3)c2n1 [Compound 171]
25 | 5.00 to 6.00 | ≥ 7.00 | +++ (a ratio of >100) | CCCC(C)Nc1ncc2c(OC3CCN(CC(=O)N(C)C)CC3)ncc([C@H]3CC[C@H](O)CC3)c2n1 (stereo partly drawn) [Compound 172]
26 | 5.00 to 6.00 | ≥ 7.00 | +++ (a ratio of >100) | CCCC(C)Nc1ncc2c(OC3CCN(CCOC)CC3)ncc([C@H]3CC[C@H](O)CC3)c2n1 (stereo partly drawn) [Compound 173]
